Data: US20040097439A9, “Isolated polynucleotides having a reduced or an increased content of epigenetic control motifs and uses thereof” (priority 1999, published 2004)

System: histone deacetylases
Assay: Relief of repressed LacZ transgenes in cleavage stage embryos by inhibitors of histone deacetylases
Format: cell-based, mouse
Conditions: for release from repression of LacZ transgenes in treated embryos: DCR6 and DCR7 2-cell embryos, NaB 2.5 mM or TSA 66 nM for 24 h; for proportion of β-gal+ embryos after NaB treatment: repressed paternal transgene
Description: One-cell embryos from different lines, carrying a transgene of maternal (A) or paternal (B) origin were recovered at 24 hphCG and allowed to develop in the absence (control) or presence of sodium butyrate (NaB; 2.5 mM) or trichostatin A (TSA; 66 nM) for 24 h. Aphidicolin, an inhibitor of DNA polymerases was used alone (Aph; 2 μg/ml) or in combination with sodium butyrate (Aph+NaB).
It is becoming more and more evident that at least part of the transcriptional repression dependent on methylated CpG islands is mediated by histone deacetylation. […] To test whether this mechanism could be responsible for the non-permissive transcriptional state established during gametogenesis and inherited by the embryo, cleavage stage embryos were treated with the deacetylase inhibitors, sodium butyrate (NaB) and the trichostatin A (TSA), two inhibitors of histone deacetylases (Yoshida et al., 1995).

| SMILES | release from repression of LacZ transgenes in treated embryos | proportion of β-gal+ embryos after NaB treatment (DCR1 line, 3% β-gal+ in untreated embryos) [%] | proportion of β-gal+ embryos after NaB treatment (DCR3 line, 18% β-gal+ in untreated embryos) [%] | proportion of β-gal+ embryos after NaB treatment (DCR5 line, 0% β-gal+ in untreated embryos) [%] |
| --- | --- | --- | --- | --- |
| CC(/C=C/C(=O)NO)=C\[C@@H](C)C(=O)c1ccc(N(C)C)cc1 [TSA, trichostatin A] | release from repression |  |  |  |
| CCCC(=O)[O-].[Na+] [NaB, sodium butyrate] | release from repression | 70 | 100 | 10 |
